Measurements as given in US20250100977A1, “MERCAPTOPYRIMIDINE COMPOUNDS THAT INHIBIT NONHOMOLOGOUS END JOINING AND METHODS THEREOF” (INDIAN INSTITUTE OF SCIENCE, priority 2021, published 2025).
Like-named read-outs stand apart in the source and are kept apart here.

What was measured:
U118 = experiment: Cytotoxicity in U118; assay type: cell-based; details: Table 2; read-out: IC50 in cancer cell lines, U118
Protocol: (§1) Ligase IV specificity of the compounds of the present invention inside the cells were also determined using Ligase IV knock out (KO) cell line N114 compared to the wild type Nalm6 (Table 2, FIGS. 5C, D, E and F). […] Table 1 showing IC50 of SCR7 derivatives in cancer cell lines Nalm6 and HeLa. IC50 was calculated using GraphPad Prism software from the percentage of viable cells following treatment with the compounds at 48 h. Table 2 showing IC50 of SCR116 and SCR132 in a panel of 16 cancer cell lines.

Raji = experiment: Cytotoxicity in Raji; assay type: cell-based; details: Homo sapiens, Raji; Table 2; read-out: IC50 in cancer cell lines, Raji
Protocol: as §1

rat testicular extracts = experiment: Inhibition of end joining of rat testicular extracts (NHEJ); assay type: biochemical; details: for Inhibition of end joining (in words): 200 μM; for Inhibition of end joining (no joined product observed): 500 μM, rat testicular extract; for End joining after Ligase IV added back to inhibited testicular extract: complementation with purified Ligase IV/XRCC4
Protocol: The compounds of the present invention were tested for their effects on inhibition of DNA end joining reactions using rat tissue extracts and purified DNA Ligase IV/XRCC4. Rat testicular extracts were prepared from testes of 4-6 week old male Wistar rats, Rattus norvegicus using ammonium sulphate precipitation method. To determine end joining of cell-free extracts, radiolabeled double-stranded (ds) oligomeric DNA substrate was incubated with rat testicular extract at 25° C. in suitable NHEJ buffer. Extracts were incubated for 30 min with the compounds of Formula I (01-41, 500 μM) as prepared in Example 1, and then radioactive DNA substrate was added to the reaction mixture and incubated for 1 h at 25° C. Reactions were stopped using EDTA, and products were purified using phenol: chloroform extraction and loaded on denaturing polyacrylamide gel. […] Joining efficiency was calculated using the intensity of product bands (150 bp or higher) in individual lanes in Multi Gauge software as compared to control (lanes 2,3). Lane 1 denotes radioactive substrate in absence of protein or inhibitor, while M denotes radiolabeled 50 bp DNA ladder.
(§2) Effects of these compounds on NHEJ and Ligase IV mediated joining were evaluated (FIG. 4A-K). The reactions were terminated by EDTA (10 mM), products were purified using phenol/chloroform, precipitated with chilled ethanol and glycogen, and resolved on 8% denaturing PAGE. The gel was dried, exposed, and signal was detected using phosphor Imager FLA9000 (Fuji, Japan), and quantified in MultiGauge software expressed as Photo Stimulated Luminescence Units (PSLU). Inhibition of end joining was reported at 200 μM and 100 μM, respectively for SCR116 and SCR132 (FIGS. 4A, B, C and D), with >50% inhibition at 200 and 100 μM concentrations, respectively. […] FIG. 4K depict the purification profile of Ligase IV and XRCC4. Further FIGS. 4L-M represent inhibition of end joining catalysed by (FIG. 4L) purified Ligase III/XRCCI in presence of SCR116 and SCR132 (50, 100, 200, 500, 1000 μM) and (FIG. 4M) by purified Ligase I in presence of increasing concentrations of SCR116 and SCR132 (10, 50, 100, 200, 500, 1000 μM).

53BP1 foci in HeLa cells = experiment: 53BP1 immunofluorescence in HeLa cells; assay type: cell-based; details: alone or alongside radiation; 24 h
Protocol: (§3) FIG. 7(A-F) depicts evaluation of generation of double-strand breaks inside cells treated with compounds SCR116 and SCR132 alone or in combination, A. Immunofluorescence with 53BP1 in HeLa cells treated with increasing concentration of SCR116 (2 and 5 μM) and SCR132 (1 and 2 μM). Nucleus is stained in red using propidium iodide, while green signal represents 53BP1 foci (FITC). B. Quantification of 53BP1 foci inside HeLa cells treated with SCR116 and SCR132 for 24 h, as denoted using scatter plot. Significance was calculated using ANOVA in GraphPad Prism software (ns, not significant; *p<0.05, **p<0.005, ***p<0.0001). C-D. Bar graphs showing percentage of viable cells following treatment with the compounds alone, or in presence of γ-radiation (0.5 Gy) at 24 (C) and 48 h (D). 2 and 4 μM SCR116, and 1 and 2 μM SCR132 were used. E. Bar graph showing percentage of viable cells following treatment with SCR116 (0.375 μM) or SCR132 (0.125 μM) alone, or in presence of 0.25 μM etoposide at 48 h. F. Bar graph showing percentage of viable cells following treatment with SCR116 (0.375 μM) or SCR132 (0.125 μM) alone, or in presence of 0.375 μM 5-FU at 48 h, in accordance with an implementation of the present disclosure.

Reh = experiment: Cytotoxicity in Reh; assay type: cell-based; details: 48 h
Protocol: The compounds of the present invention were screened initially in leukemic and cervical cancer cell lines (Table 1). […] In cervical cancer cell line HeLa, IC50 was 5 and 2 μM, respectively for SCR116 and SCR132 (FIG. 5A-B).
as §1

SCC131 derived xenograft = experiment: Mouse xenograft model, SCC131; assay type: in vivo; details: oral cancer SCC131 xenograft; 8 oral doses
Ligase III/XRCC1 = molecular target: T1, Ligase III/XRCC1 (Homo sapiens, UniProt P49916); experiment: Inhibition of end joining by purified Ligase III/XRCC1; assay type: biochemical; details: 50, 100, 200, 500, 1000 μM
T1 construct: made in house
T1 sequence (P49916 43-1009): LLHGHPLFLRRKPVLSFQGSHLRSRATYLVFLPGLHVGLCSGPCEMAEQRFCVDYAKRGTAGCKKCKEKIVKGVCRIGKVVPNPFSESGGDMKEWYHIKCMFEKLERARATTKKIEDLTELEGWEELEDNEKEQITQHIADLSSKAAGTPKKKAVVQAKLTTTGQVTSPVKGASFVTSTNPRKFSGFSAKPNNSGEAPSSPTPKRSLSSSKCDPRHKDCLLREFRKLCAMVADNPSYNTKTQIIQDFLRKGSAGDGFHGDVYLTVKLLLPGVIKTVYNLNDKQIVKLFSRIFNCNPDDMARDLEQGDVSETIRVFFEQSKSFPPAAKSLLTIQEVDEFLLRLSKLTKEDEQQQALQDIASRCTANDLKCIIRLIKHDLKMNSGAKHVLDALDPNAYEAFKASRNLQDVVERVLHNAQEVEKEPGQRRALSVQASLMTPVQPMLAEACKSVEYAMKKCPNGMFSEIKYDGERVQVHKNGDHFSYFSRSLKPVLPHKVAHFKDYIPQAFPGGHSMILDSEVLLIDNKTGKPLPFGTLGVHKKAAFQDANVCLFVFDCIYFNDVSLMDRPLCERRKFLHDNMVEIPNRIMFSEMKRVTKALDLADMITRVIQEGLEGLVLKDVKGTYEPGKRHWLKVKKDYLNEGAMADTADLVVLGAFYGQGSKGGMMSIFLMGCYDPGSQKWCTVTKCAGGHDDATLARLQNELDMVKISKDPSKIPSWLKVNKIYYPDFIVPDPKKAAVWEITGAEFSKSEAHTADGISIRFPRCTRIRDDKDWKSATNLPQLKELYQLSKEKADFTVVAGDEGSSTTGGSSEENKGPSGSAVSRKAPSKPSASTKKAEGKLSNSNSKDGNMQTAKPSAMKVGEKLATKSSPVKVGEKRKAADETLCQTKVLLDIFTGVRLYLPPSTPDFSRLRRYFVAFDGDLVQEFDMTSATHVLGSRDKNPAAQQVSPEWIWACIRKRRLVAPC
T1 sequence (P18887 whole entry partner): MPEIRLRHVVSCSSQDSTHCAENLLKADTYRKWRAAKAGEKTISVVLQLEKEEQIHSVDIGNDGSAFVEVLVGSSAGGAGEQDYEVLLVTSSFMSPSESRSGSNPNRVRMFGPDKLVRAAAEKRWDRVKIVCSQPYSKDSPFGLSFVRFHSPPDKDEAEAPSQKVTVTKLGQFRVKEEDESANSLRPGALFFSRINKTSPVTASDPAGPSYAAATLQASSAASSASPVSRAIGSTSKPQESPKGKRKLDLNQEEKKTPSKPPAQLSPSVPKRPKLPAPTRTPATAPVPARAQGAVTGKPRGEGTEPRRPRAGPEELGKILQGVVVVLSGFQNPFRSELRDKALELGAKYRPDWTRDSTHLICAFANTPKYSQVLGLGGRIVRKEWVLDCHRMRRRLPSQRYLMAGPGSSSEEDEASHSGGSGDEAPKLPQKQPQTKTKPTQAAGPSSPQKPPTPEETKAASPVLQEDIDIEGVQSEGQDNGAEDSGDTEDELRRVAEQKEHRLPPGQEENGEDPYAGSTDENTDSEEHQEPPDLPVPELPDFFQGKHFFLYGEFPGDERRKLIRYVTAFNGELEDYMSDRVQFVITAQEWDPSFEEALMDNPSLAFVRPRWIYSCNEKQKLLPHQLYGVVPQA
Protocol: The compounds of the present invention were analysed for inhibition of end joining with purified Ligase I (FIG. 3A) and Ligase III/XRCC1 (FIG. 3F). The compounds were incubated with either purified Ligase I (FIG. 3B-E) or with Ligase III/XRCC1 (FIGS. 3G-J) in suitable NHEJ buffer at 25° C. for 30 min, followed by addition of radiolabeled DNA, and further incubation for 1 h at 25° C. Products were purified using phenol: chloroform, and run on denaturing PAGE.
as §2, with “Further FIGS. 4L-M represent inhibition of end joining catalysed by (FIG. 4L) purified Ligase III/XRCCI in presence of SCR116 and SCR132 (50, 100, 200, 500, 1000 μM) and (FIG. 4M) by purified Ligase I in presence of increasing concentrations of SCR116 and SCR132 (10, 50, 100, 200, 500, 1000 μM).” left out

53BP1 foci in Nalm6 = 53BP1 foci in Nalm6 cells; assay type: cell-based; details: 24 h, SCR116 2, 5 μM, SCR132 1, 2 μM
Protocol: FIG. 8(A-B) depicts accumulation of DSBs inside cells following treatment with the compounds. A. Representative images for HeLa cells subjected to neutral comet assay following treatment with SCR116 and SCR132 for 24 h. […] FIG. 8C, D are representative images for Nalm6 cells (C) and N114 cells (D) following treatment with SCR116 and SCR132 for 24 h. and FIG. 8E, F are scatter plot depicting quantification of percentage of 53BP1 foci treated with SCR116 (2, 5 μM) and SCR132 (1, 2 μM) in Nalm6 and N114.

cancer cells = experiment: Cytotoxicity in combination with radiation or chemotherapeutic agents; assay type: cell-based; details: combined with 0.5 and 1 Gy γ-radiation, or 5-FU and etoposide
Protocol: as §3

[1] = Homo sapiens, REH, Table 2, read-out: IC50 in cancer cell lines, Reh

Row | SMILES | IC50 (U118) [nM] | IC50 (Raji) [nM] | Inhibition of end joining (in words) (rat testicular extracts) | Inhibition of end joining (no joined product observed) (rat testicular extracts) | End joining after Ligase IV added back to inhibited testicular extract (rat testicular extracts) | DNA damage marker 53BP1 (53BP1 foci in HeLa cells) | Fold difference of IC50 in Reh to that of SCR7 (Reh) [fold] | IC50 (Reh; [1]) [nM] | IC50 (Reh; Homo sapiens, REH, read-out: IC50 in Reh cells) [nM] | Tumor volume (SCC131 derived xenograft) | Inhibition of end joining with Ligase III/XRCC1 (Ligase III/XRCC1) | 53BP1 foci (53BP1 foci in Nalm6) | Cytotoxicity in combination (cancer cells) | IC50 (Reh; Table 2, listed as SCR116, read-out: IC50 in cancer cell lines, Reh) [nM]
1 | Nc1nc(S)nc(O)c1/N=C/c1sc(Cl)nc1Cl [Compound 32, (E)-6-amino-5-(((2,4-dichlorothiazol-5-yl)methylene)amino)-2-mercaptopyrimidin-4-ol] | 4100 | 1590 | complete inhibition of end joining | showed inhibition of end joining | joining efficiency was restored | increase in DNA damage marker 53BP1 | > 250 | 690 | 690 | significant reduction in tumor volume | no significant inhibition | significant increase in 53BP1 foci | Increased cytotoxicity | –
2 | Nc1nc(S)nc(O)c1/N=C/c1ccc([N+](=O)[O-])s1 [Compound 16, (E)-6-amino-2-mercapto-5-(((5-nitrothiophen-2-yl)methylene)amino)pyrimidin-4-ol] | 5600 | 4370 | complete inhibition of end joining | showed inhibition of end joining | joining efficiency was restored | increase in DNA damage marker 53BP1 | > 100 | 2300 | – | significant reduction in tumor volume | inhibited end joining at highest concentrations of 500 and 1000 μM | significant increase in 53BP1 foci | Increased cytotoxicity | 2340
